Tests used:
[1] = test system: T1, AcerOr11; experiment: two-electrode voltage clamp in Xenopus oocytes (agonist, dose-response and I-V curves); format: cell-based, Apis cerana
T1 construct: gene Or11; AcerOr11 co-expressed with AcerOrco in Xenopus laevis oocytes; with AcerOrco

[2] = test system: T1, AcerOr11; experiment: two-electrode voltage clamp in Xenopus oocytes (inverse currents; also inhibits 9-ODA-evoked currents); format: cell-based, Apis cerana

Structure (SMILES): CC(=O)CCCCC/C=C/C(=O)O [9-ODA, 9-oxo-(E)-2-decenoic acid]
- EC50 [1]: 0.35 nM

Structure (SMILES): COC(=O)c1ccc(O)cc1 [HOB, methyl p-hydroxybenzoate]
- EC50 [2]: 150 nM

Reference: publication PMC11045764, “The dual coding of a single sex pheromone receptor in Asian honeybee Apis cerana” (Communications Biology, 2024)
